Tests used:
[1] = system: Calu-3; assay: relative viability EC50 (midpoint between 100% and the lowest measured viability); higher = less toxic; details: 72 h
[2] = system: HepG2; assay: as above; details: 72 h
[3] = system: U2OS; assay: cell viability relative to DMSO; higher = less toxic; details: 72 h
[4] = system: Calu-3; assay: as above; details: 72 h
[5] = system: Caco-2; assay: as above; details: 72 h
[6] = system: Vero E6; assay: as above; details: 72 h
[7] = system: HepG2; assay: as above; details: 72 h
[8] = system: A549-ACE2 infected with SARS-CoV-2; assay: cell count relative to DMSO; higher = less toxic; details: 24 h
[9] = system: U2OS; assay: drug sensitivity score (DSS) for viability; higher = more toxic; extreme values may be limits of the assay; details: 72 h
[10] = system: Calu-3; assay: as above; details: 72 h
[11] = system: Caco-2; assay: as above; details: 72 h
[12] = system: Vero E6; assay: as above; details: 72 h
[13] = system: HepG2; assay: as above; details: 72 h
[14] = system: A549-ACE2 infected with SARS-CoV-2; assay: SARS-CoV-2 infection rate relative to DMSO; higher = more infection; details: 24 h
[15] = system: A549-ACE2; assay: drug-induced phospholipidosis relative to tamoxifen; higher = more phospholipidosis
[16] = system: A549-ACE2 infected with SARS-CoV-2; assay: morphology score (similarity to uninfected cells); higher = more like uninfected cells; details: 24 h
[17] = system: A549-ACE2; assay: phospholipidosis EC50; higher = less potent phospholipidosis inducer
[18] = system: U2OS; assay: relative viability EC50 (midpoint between 100% and the lowest measured viability); higher = less toxic; details: 72 h
[19] = system: Vero E6; assay: as above; details: 72 h
[20] = system: Caco-2; assay: as above; details: 72 h

COC(=O)C1=C(C)NC(C)=C(C(=O)NCCCN2CCC(c3ccccc3)(c3ccccc3)CC2)C1c1ccc([N+](=O)[O-])cc1 (stereo not given) [SNAP-5089]
Details	drug sensitivity score	relative viability EC50 [nM]
[1]	–	3570
[2]	–	3020
[9]	1.6	–
[10]	4.4	–
[11]	1.4	–
[12]	1.9	–
[13]	3.7	–

Details	SARS-CoV-2 infection rate [%]	cell count [%]	cell viability [%]	morphology score	phospholipidosis EC50 [nM]
[3], 1 nM	–	–	94.4	–	–
[3], 10 nM	–	–	98.7	–	–
[3], 100 nM	–	–	98.5	–	–
[3], 1000 nM	–	–	102	–	–
[3], 10000 nM	–	–	63.8	–	–
[4], 1 nM	–	–	88.4	–	–
[4], 10 nM	–	–	101	–	–
[4], 100 nM	–	–	92.3	–	–
[4], 1000 nM	–	–	107	–	–
[4], 10000 nM	–	–	12.1	–	–
[5], 1 nM	–	–	95.4	–	–
[5], 10 nM	–	–	94.8	–	–
[5], 100 nM	–	–	92.9	–	–
[5], 1000 nM	–	–	106	–	–
[5], 10000 nM	–	–	63	–	–
[6], 1 nM	–	–	94.8	–	–
[6], 10 nM	–	–	98.5	–	–
[6], 100 nM	–	–	97.4	–	–
[6], 1000 nM	–	–	91.8	–	–
[6], 10000 nM	–	–	74.3	–	–
[7], 1 nM	–	–	114	–	–
[7], 10 nM	–	–	108	–	–
[7], 100 nM	–	–	102	–	–
[7], 1000 nM	–	–	98.6	–	–
[7], 10000 nM	–	–	35.5	–	–
[8], 0.1 µM	–	104	–	–	–
[8], 0.3 µM	–	100	–	–	–
[8], 1 µM	–	110	–	–	–
[8], 3 µM	–	123	–	–	–
[14], 0.1 µM	92	–	–	–	–
[14], 0.3 µM	107	–	–	–	–
[14], 1 µM	84	–	–	–	–
[14], 3 µM	23	–	–	–	–
[16], 0.1 µM	–	–	–	0.15	–
[16], 0.3 µM	–	–	–	-0.06	–
[16], 1 µM	–	–	–	0.43	–
[16], 3 µM	–	–	–	0.87	–
[17], 24 h	–	–	–	–	945
[17], 48 h	–	–	–	–	1980
[17], 72 h	–	–	–	–	4510

drug-induced phospholipidosis [%], [15]
Details	0.3 µM	0.833333 µM	3.33333 µM	6.66667 µM	10 µM	30 µM
24 h	5.01	19.9	66.9	74.6	62.5	47.6
48 h	7.57	17.4	77.4	93.7	96.6	–
72 h	6.91	11.4	64.3	94.9	116	–

CC/C(=C(\c1ccc(O)cc1)c1ccc(OCCN(C)C)cc1)c1ccccc1 [afimoxifene]
Details	drug sensitivity score	relative viability EC50 [nM]
[1]	–	3520
[9]	1.2	–
[10]	3.7	–
[11]	2.5	–
[12]	0.3	–
[13]	1.8	–
[18]	–	> 10000
[19]	–	> 10000

Details	SARS-CoV-2 infection rate [%]	cell count [%]	cell viability [%]	morphology score	phospholipidosis EC50 [nM]
[3], 1 nM	–	–	96.8	–	–
[3], 10 nM	–	–	94.8	–	–
[3], 100 nM	–	–	102	–	–
[3], 1000 nM	–	–	97.2	–	–
[3], 10000 nM	–	–	77.6	–	–
[4], 1 nM	–	–	91.7	–	–
[4], 10 nM	–	–	103	–	–
[4], 100 nM	–	–	102	–	–
[4], 1000 nM	–	–	105	–	–
[4], 10000 nM	–	–	25.2	–	–
[5], 1 nM	–	–	93	–	–
[5], 10 nM	–	–	91.2	–	–
[5], 100 nM	–	–	95.5	–	–
[5], 1000 nM	–	–	94	–	–
[5], 10000 nM	–	–	66.6	–	–
[6], 1 nM	–	–	93.7	–	–
[6], 10 nM	–	–	98.9	–	–
[6], 100 nM	–	–	99.8	–	–
[6], 1000 nM	–	–	104	–	–
[6], 10000 nM	–	–	81.2	–	–
[7], 1 nM	–	–	94.6	–	–
[7], 10 nM	–	–	111	–	–
[7], 100 nM	–	–	90.7	–	–
[7], 1000 nM	–	–	112	–	–
[7], 10000 nM	–	–	54.3	–	–
[8], 0.3 µM	–	99	–	–	–
[8], 3 µM	–	121	–	–	–
[8], 10 µM	–	117	–	–	–
[8], 30 µM	–	81	–	–	–
[14], 0.3 µM	112	–	–	–	–
[14], 3 µM	47	–	–	–	–
[14], 10 µM	13	–	–	–	–
[14], 30 µM	68	–	–	–	–
[16], 0.3 µM	–	–	–	-0.03	–
[16], 3 µM	–	–	–	0.75	–
[16], 10 µM	–	–	–	0.83	–
[16], 30 µM	–	–	–	-0.14	–
[17], 24 h	–	–	–	–	1780
[17], 48 h	–	–	–	–	2820
[17], 72 h	–	–	–	–	3950

drug-induced phospholipidosis [%], [15]
Details	0.3 µM	0.833333 µM	3.33333 µM	6.66667 µM	10 µM	30 µM
24 h	3.39	11.5	51	69.1	81.9	36.9
48 h	3.38	6.29	53.4	74.8	82.8	–
72 h	5.01	4.34	43.1	75.7	88.4	–

COc1ccc(-c2cc3nccn3c(Nc3ncccc3C(N)=O)n2)cc1OC [BAY-61-3606]
Details	drug sensitivity score	relative viability EC50 [nM]
[1]	–	> 10000
[2]	–	2100
[9]	3.4	–
[10]	0	–
[11]	5.2	–
[12]	1.3	–
[13]	7.4	–
[20]	–	1360

Details	SARS-CoV-2 infection rate, [14] [%]	cell count, [8] [%]	cell viability, [3] [%]	cell viability, [4] [%]	cell viability, [5] [%]	cell viability, [6] [%]	cell viability, [7] [%]	morphology score, [16]
1 nM	–	–	103	108	104	97.4	96.1	–
10 nM	–	–	97.4	99.1	89.8	99	99.7	–
100 nM	–	–	101	96	95.8	93.9	102	–
0.1 µM	94	99	–	–	–	–	–	0.21
0.3 µM	101	99	–	–	–	–	–	0.16
1000 nM	–	–	94.1	130	80.8	99.6	87.5	–
1 µM	107	95	–	–	–	–	–	0.02
3 µM	82	59	–	–	–	–	–	0.48
10000 nM	–	–	53.3	109	46.1	70.9	5	–

drug-induced phospholipidosis [%], [15]
Details	0.3 µM	0.833333 µM	3.33333 µM
24 h	-2.52	-2.28	22.8
48 h	0.47	-0.01	–
72 h	0.971	-0.217	–

CC(=O)OC[C@H]1O[C@@H]([S-])[C@H](OC(C)=O)[C@@H](OC(C)=O)[C@@H]1OC(C)=O.CCP(CC)CC.[Au+] [auranofin]
Details	drug sensitivity score	relative viability EC50 [nM]
[1]	–	3860
[2]	–	1460
[9]	16.9	–
[10]	4.5	–
[11]	11	–
[12]	7.5	–
[13]	9.7	–
[18]	–	382
[19]	–	2190
[20]	–	1150

Details	SARS-CoV-2 infection rate, [14] [%]	cell count, [8] [%]	cell viability, [3] [%]	cell viability, [4] [%]	cell viability, [5] [%]	cell viability, [6] [%]	cell viability, [7] [%]	morphology score, [16]
1 nM	–	–	101	100	99.9	92.1	90.6	–
10 nM	–	–	98.2	92.8	94.2	94.2	99.4	–
100 nM	–	–	98.5	106	101	93.6	102	–
0.1 µM	96	98	–	–	–	–	–	0.03
0.3 µM	91	103	–	–	–	–	–	0.11
1000 nM	–	–	7.5	117	58.6	88.1	72.1	–
1 µM	86	98	–	–	–	–	–	0.34
3 µM	64	90	–	–	–	–	–	0.39
10000 nM	–	–	0	1.2	0	0	-0.1	–

drug-induced phospholipidosis [%], [15]
Details	0.3 µM	0.833333 µM	3.33333 µM	6.66667 µM
24 h	0.97	-3.21	5.44	2.76
48 h	3.04	-1.45	6.04	–
72 h	2.56	0.634	–	–

Reference: the supplement of paper PMC13380429
